Assay results: patent US6894043B1, “Benzothiadiazine derivatives, preparation method and pharmaceutical compositions containing same” (Les Laboratoires Servier, priority 1999, dated 2005)

System: AMPA receptors
Experiment: Excitatory fluxes induced by AMPA in Xenopus oocytes (2-electrode voltage-clamp)
Type: cell-based
Settings: AMPA 30 μM; Xenopus oocytes injected with rat cortex poly(A+) mRNA; 20-24° C.
Experimental: mRNAs are prepared from cerebral cortex of male Wistar rat by the guanidium thiocyanate/phenol/chloroform method. The poly(A^+)mRNAs are isolated by chromatography on oligo-dT cellulose and injected with 50 ng per oocyte. The oocytes are left for 2 to 3 days' incubation at 10° C. to enable expression of the receptors and are then stored at 8-10° C.
Electrophysiological recording is carried out in a plexiglass chamber at 20-24° C. in an OR2 medium (J. Exp. Zool., 1973, 184, 321-334) by the 2-electrode “voltage-clamp” method, with a 3rd electrode being placed in the bath to serve as reference.
All the compounds are administered via the incubation medium and the electric current is measured at the end of the period of administration. AMPA is used in a concentration of 30 μM. For each compound studied, there is determined the concentration that doubles (EC2X) or quintuples (EC5X) the intensity of the flux induced by AMPA alone (50 to 100 nA).

SMILES	EC2X (concentration that doubles the intensity of the flux induced by AMPA alone)	EC5X (concentration that quintuples the intensity of the flux induced by AMPA alone)
CCN1CNS(=O)(=O)c2cc(Br)ccc21 [Example 3, 7-Bromo-4-ethyl-2,3-dihydro-4H-1,2,4-benzothiadiazine 1,1-dioxide]	29 ± 6 µM	78 ± 16 µM
CCN1CNS(=O)(=O)c2cc(I)ccc21 [Example 4, 4-Ethyl-7-iodo-2,3-dihydro-4H-1,2,4-benzothiadiazine 1,1-dioxide]	95 ± 31 µM	>300 µM
